Experimental data from US5491169A, “Amino acid derivatives and their therapeutical applications” (priority 1989, dated 1996).
Values joined by “and” are separate entries in the source; they are usually repeats but may differ in a detail not shown here. Equal entries are not always repeated. Each block holds one molecule with its values, some of them ahead of it.

Key:
[1] = Mice despair test; assay type: in vivo; settings: mouse, controls 165 ± 15, p < 0.01
Experimental: This test, described by Porsolt et al. (Arch. Int. Pharmacodyn. Ther, 299, 327 (1977), enables the antidepressant properties of the claimed compounds to be evaluated.
Mice are treated with increasing doses of the compounds thirty minutes before the test, and the immobility of the animals is measured relative to controls which receive only the vehicle. The immobility time is decreased by the compounds according to the invention, and this effect is antagonized by naloxame (0.5 mg/kg s.c.).

[2] = Tail flick test (withdrawal of the tail), i.v.; assay type: in vivo; settings: rats, 10 mg/kg
Experimental: 3) Test of withdrawal of the tail in rats: (tail flick test): administered i.v. in rats, the compounds according to the invention produce a significant extension of the time of withdrawal of the tail. These effects are antagonized by naloxone (0.5 mg/kg s.c.).
The results are expressed as a % analgesia for the same dose (10 mg/kg) of all the compounds tested.

[3] = molecular target: T1, purified porcine kidney aminopeptidase N (Sus scrofa, UniProt P15145); experiment: In vitro inhibitory potency against aminopeptidase N; assay type: biochemical; settings: purified porcine kidney enzyme, (3H)-Leu5-enkephalin, DTT
T1 construct: purchased Boehringer, France; host or cells: porcine kidney
T1 sequence (P15145 1-963): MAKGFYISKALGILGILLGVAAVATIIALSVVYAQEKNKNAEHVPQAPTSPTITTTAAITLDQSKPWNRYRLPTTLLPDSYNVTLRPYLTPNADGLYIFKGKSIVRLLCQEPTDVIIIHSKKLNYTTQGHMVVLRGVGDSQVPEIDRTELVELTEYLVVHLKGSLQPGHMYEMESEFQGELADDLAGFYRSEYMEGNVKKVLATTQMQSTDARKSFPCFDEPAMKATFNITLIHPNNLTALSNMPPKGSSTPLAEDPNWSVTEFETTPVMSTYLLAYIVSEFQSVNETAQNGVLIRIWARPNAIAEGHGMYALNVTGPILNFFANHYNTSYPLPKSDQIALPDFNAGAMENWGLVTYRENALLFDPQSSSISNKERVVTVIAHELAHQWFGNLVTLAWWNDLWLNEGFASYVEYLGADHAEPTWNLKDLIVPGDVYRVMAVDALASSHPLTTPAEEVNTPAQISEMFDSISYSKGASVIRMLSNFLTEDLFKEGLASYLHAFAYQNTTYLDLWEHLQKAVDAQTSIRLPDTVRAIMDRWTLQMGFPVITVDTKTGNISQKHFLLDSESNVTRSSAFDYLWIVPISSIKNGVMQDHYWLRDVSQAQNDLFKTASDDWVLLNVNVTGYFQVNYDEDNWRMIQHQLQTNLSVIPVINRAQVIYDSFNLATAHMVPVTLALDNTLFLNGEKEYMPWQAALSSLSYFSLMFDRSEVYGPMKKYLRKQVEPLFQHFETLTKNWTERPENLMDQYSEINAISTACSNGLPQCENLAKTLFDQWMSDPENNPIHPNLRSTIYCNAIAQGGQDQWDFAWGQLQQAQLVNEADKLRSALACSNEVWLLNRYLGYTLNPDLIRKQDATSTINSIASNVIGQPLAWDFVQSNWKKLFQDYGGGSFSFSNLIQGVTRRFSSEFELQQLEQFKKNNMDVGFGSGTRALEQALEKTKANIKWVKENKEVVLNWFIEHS
Experimental: (§1) The biological activity relates to the inhibition of purified aminopeptidase N and of purified neutral endopeptidase.
(§2) 1) In vitro inhibition of enkephalinase activities.
b) Inhibitory potency against aminopeptidase N
The inhibitory power is measured on purified porcine kidney aminopeptidase (Boehringer, France). The assay is performed in a manner identical to the above, using (^3 H)-Leu^5 -enkephalin as a substrate. The metabolite formed, (^3 H)-Tyr, is separated by chromatography on a Porapak column, and the quantity formed measured using a liquid scintillation counter.

[4] = Hot plate test, i.v.; assay type: in vivo; settings: Mus musculus, iv, mice, hot plate 55° C., Table III 50% analgesia
Experimental: (§3) 1) Hot .plate test: This involves the licking and jumping reflex of the mouse on a plate heated to 55° C., according to the method of Jacob et al (Arch Int. Pharmacodyn. 122 287, 1959; 1961).
1.1. Administered i.v. (100 μl in tail vein) in mice, the compounds tested display a characteristic effect both on the latency time of jumping and on latency time of licking. These effects are antagonized by naloxone (0.5 mg/kg s.c.).
The results are expressed in Table III as a % analgesia. The percentage analgesia is expressed for each dose of compound tested by the following formula: [formula]

[5] = Locomotor activity (righting movements) after long-term sulpiride; assay type: in vivo, rats; settings: rat, after three weeks of sulpiride, control rat 100%
Experimental: c) Potentiation of the behavioral effects (locomotor hyperactivity) induced by the compounds according to the invention after long-term treatment with […]: 1 h after i.v. or p.o. administration in rats, the compounds according to the invention induce an increase in locomotor activity. […] This potentiation is not apparent until three weeks after the beginning of the treatment with neuroleptics.

[6] = Hot plate test, i.p.; assay type: in vivo; settings: mice
Experimental: as §3
1.2 Administered i.p. in mice, the test compounds display a characteristic effect on the times of restraint of jumping and of licking. These effects are antagonized by naloxone (0.5 mg/kg).

[7] = molecular target: T2, purified rabbit kidney neutral endopeptidase (Oryctolagus cuniculus, UniProt P08049); experiment: In vitro inhibitory potency against neutral endopeptidase; assay type: biochemical; settings: purified rabbit kidney enzyme, (3H)-D-Ala2-Leu5-enkephalin, 25° C., pH 7.4, DTT 100 equivalents
T2 construct: from tissue; host or cells: rabbit kidney (purified enzyme)
T2 sequence (P08049 1-750): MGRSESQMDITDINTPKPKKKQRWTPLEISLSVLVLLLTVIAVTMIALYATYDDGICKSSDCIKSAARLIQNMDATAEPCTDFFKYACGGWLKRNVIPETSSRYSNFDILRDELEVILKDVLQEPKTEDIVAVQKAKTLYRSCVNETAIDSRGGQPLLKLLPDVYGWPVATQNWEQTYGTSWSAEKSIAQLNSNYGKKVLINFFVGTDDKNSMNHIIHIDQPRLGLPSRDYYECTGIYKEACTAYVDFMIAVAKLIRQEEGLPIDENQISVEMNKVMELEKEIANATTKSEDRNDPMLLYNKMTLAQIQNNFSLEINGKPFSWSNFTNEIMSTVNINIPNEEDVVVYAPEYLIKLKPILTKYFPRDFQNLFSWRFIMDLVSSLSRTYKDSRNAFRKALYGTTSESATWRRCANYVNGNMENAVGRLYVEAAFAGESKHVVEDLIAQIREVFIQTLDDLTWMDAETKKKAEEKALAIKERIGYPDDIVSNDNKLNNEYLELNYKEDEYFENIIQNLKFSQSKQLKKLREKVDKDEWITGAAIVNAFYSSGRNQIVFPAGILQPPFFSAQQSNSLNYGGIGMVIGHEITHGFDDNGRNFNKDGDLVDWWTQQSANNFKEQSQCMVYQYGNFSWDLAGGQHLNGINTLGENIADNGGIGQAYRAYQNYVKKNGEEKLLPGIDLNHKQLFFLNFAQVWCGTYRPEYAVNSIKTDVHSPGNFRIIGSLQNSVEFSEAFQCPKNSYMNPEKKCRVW
Experimental: as §1, §2
a) Inhibitory potency against neutral endopeptidase
The inhibitory power is determined on purified rabbit kidney neutral endopeptidase following the protocol described in the literature (Blumberg et al. Life Sci. (1981) 28, 301). After a preincubation for 15 minutes at 25° C., an aliquot of proteins is incubated for 20 minutes at 25° C. in the presence of 20 nmol of (^3 H)-D-Ala^2 -Leu^5 -enkephalin and the test compound in solution in Tris-HCl buffer (pH 7.4) in the presence of dithiothreitol DTT (100 equivalents relative to the inhibitor). The reaction is stopped by adding 0.2 N HCl. The tritiated metabolite (^3 H)-Tyr-D-Ala-Gly is separated from the D-Ala^2 -Leu^5 -enkephalin by chromatography on a Porapak column, and the quantity formed measured using a liquid scintillation counter.
The activity of the different compounds is expressed as 50% inhibitory concentrations (IC50), and the results are summarized in Table II.

[8] = Cross-tolerance with morphine, i.v. injection into morphine-tolerant animal; settings: mouse or rat
[9] = tested on: cerebral NEP; experiment: In vivo inhibition of cerebral NEP; settings: mice, i.v., 2.7 μmol/kg (Example 7: same conditions)
Experimental: 2) "In vivo" inhibition of cerebral NEP
The enzymatic activity of cerebral NEP is compared in mice untreated or treated with a given dose of compound (approximately 2.5 mg/kg injected intravenously. The animals are sacrificed at variable times after injection of the inhibitor, and the NEP activity is determined in the brain by measuring the degradation of (^3 H)-D-Ala^2 -Leu^5 -enkephalin.
For the final compound of Example 1, injected at a dose of 2.7 μmol/kg (47.6 μg in 100 μl), the following results are obtained: […]

[10] = Test on abdominal cramps induced by phenylbenzoquinone, i.v.; assay type: in vivo
Experimental: 2) Test on abdominal cramps
(Hendershot and Forsaith. J. Pharmacol. (1975), 125, 237): This test measures the number of cramps induced by i.p. injection of 100 μl of a 0.02% solution of phenylbenzoquinone. The number of cramps is counted during 10 minutes, 10 minutes after the injection. Administered i.v., the compounds decrease the number of cramps.

[11] = Tolerance after long-term administration, rats (% analgesia); assay type: in vivo; settings: rat, in vivo
Experimental: (§4) e) Study of the tolerance and addiction effects induced by long-term administration of the compound of Example 8:
(§5) 1) The compound 8 is administered s.c. four times per 24 hours at a dose of 5 mg/kg for 6 days to mice and at 10 mg/kg to rats.
(§6) Morphine (hydrochloride) is administered under the same conditions (0.5 mg/kg in mice, 2 mg/kg in rats). The control animals receive only the vehicle.

[12] = Addiction effects: naloxone-precipitated abstinence syndrome after long-term treatment; assay type: in vivo; settings: rats, 6 days long-term treatment, naloxone 2 mg/kg s.c.; compared to morphine
Experimental: as §5
2) After long-term treatment for 6 days under the conditions described above, the rats undergo an injection of 2 mg/kg of naloxane s.c. The signs of abstinence syndrome are measured according to Cowan et al. (J. Pharmacol. Exp. Ther. (1988) 246, 950).

[13] = Tolerance after long-term administration, mice (% analgesia); assay type: in vivo; settings: mouse, in vivo
Experimental: as §4, §5, §6

IC50 [3]: 2 nM
IC50 [7]: 2 nM
SMILES: CSCCC(N)CSSCC(Cc1ccccc1)C(=O)NCC(=O)OCc1ccccc1 (stereo not drawn) [Example 5]
Immobility time ([1]; 5 mg/kg i.p.): 108 ± 12 s
% analgesia (tail flick) [2]: 25%
ED50 [4]: 2.5 mg/kg
Locomotor activity ([5]; i.v., 5 mg/kg): 400%
dose in i.p. hot plate table [6]: 7 mg/kg

SMILES: CSCCC(N)CSSCC(Cc1ccccc1)C(=O)NC(Cc1ccccc1)C(=O)OCc1ccccc1 (stereo not drawn) [Example 7]
analgesic response in morphine-tolerant animal [8]: analgesic response identical to that obtained in a control animal
cross-tolerance with morphine [8]: absence of cross-tolerance
% analgesia (tail flick) [2]: 42%
ED50 [4]: 5 mg/kg
Locomotor activity ([5]; i.v., 3 mg/kg): 400%
% inhibition cerebral NEP ([9]; 60'): 96 ± 5%
% inhibition cerebral NEP ([9]; 120'): 96 ± 4%
% inhibition cerebral NEP ([9]; 180'): 92 ± 4%
% analgesia (abdominal cramps) ([10]; 2.5 mg/kg): 32% ± 4
% analgesia (abdominal cramps) ([10]; 5 mg/kg): 68% ± 9
% analgesia (abdominal cramps) ([10]; 10 mg/kg): 95% ± 4
dose in i.p. hot plate table [6]: 8 mg/kg
IC50 [7]: 2.5 nM

SMILES: C[S+]([O-])CCC(N)CSSCC(Cc1ccccc1)C(=O)NCC(=O)OCc1ccccc1 (stereo not drawn) [Example 8]
% analgesia relative to the controls [11]: 40 ± 5% and 30 ± 7%
IC50 [3]: 2 nM
ED50 [4]: 2.5 mg/kg
addiction effects [12]: very weak addiction effects
% analgesia relative to the controls [13]: 100 ± 10% and 100 ± 8% and 70 ± 15%
IC50 [7]: 2 nM

IC50 [3]: 2 nM
IC50 [7]: 3 nM
SMILES: C[S+]([O-])CCC(N)CSSCC(CC[S+](C)[O-])C(=O)NC(CC(=O)OCc1ccccc1)Cc1ccccc1 (stereo not drawn) [Example 30]
Immobility time ([1]; 2 mg/kg i.p.): 96 ± 8 s
Immobility time ([1]; 20 mg/kg p.o.): 101 ± 10 s
ED50 [4]: 3 mg/kg
Locomotor activity ([5]; i.v. (so in the source), 20 mg/kg): 370%
Locomotor activity ([5]; i.v., 2 mg/kg): 350%
